In US8802597B2, “Herbicidal pyrimidines” (E I du Pont de Nemours and Company, priority 2003, dated 2014):
Like-named read-outs stand apart in the source and are kept apart here.

What was measured:
Experiment in all cases: Test C pre/postemergence
Type in all cases: in vivo
[1] = system: cocklebur (Xanthium strumarium); conditions: Xanthium strumarium; for pest or weed control at 8 g/ha: 8 g ai/ha; for pest or weed control at 16 g/ha: 16 g ai/ha; for pest or weed control at 31 g/ha: 31 g ai/ha; for pest or weed control at 62 g/ha: 62 g ai/ha
In short: (§1)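 Test compounds, formulated in a non-phytotoxic solvent mix with surfactant, were applied to freshly planted seeds and, at the same time, to emerged plants at 1- to 4-leaf stage (2 to 18 cm). After 12 to 14 days in the greenhouse, response was scored visually versus controls, 0 = no effect, 100 = complete control.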

[2] = system: common (oilseed) sunflower (Helianthus annuus); conditions: Helianthus annuus, pre-emergence, Preemergence, read-out: Plant response rating, Sunflower
In short: as §1

[3] = system: common ragweed (Ambrosia elatior); conditions: Ambrosia artemisiifolia; for pest or weed control at 8 g/ha: 8 g ai/ha; for pest or weed control at 16 g/ha: 16 g ai/ha; for pest or weed control at 31 g/ha: 31 g ai/ha; for pest or weed control at 62 g/ha: 62 g ai/ha
In short: as §1

[4] = system: crabgrass (Digitaria sanguinalis); conditions: Digitaria sanguinalis; for pest or weed control at 8 g/ha: 8 g ai/ha; for pest or weed control at 16 g/ha: 16 g ai/ha; for pest or weed control at 31 g/ha: 31 g ai/ha; for pest or weed control at 62 g/ha: 62 g ai/ha
In short: as §1

[5] = system: eastern black nightshade (Solanum ptycanthum); conditions: Solanum, pre-emergence, Preemergence, read-out: Plant response rating, Nightshade
In short: as §1

[6] = system: giant foxtail (Setaria faberii); conditions: Setaria faberi; for pest or weed control at 8 g/ha: 8 g ai/ha; for pest or weed control at 31 g/ha: 31 g ai/ha; for pest or weed control at 62 g/ha: 62 g ai/ha
In short: as §1

kochia (Kochia scoparia) = conditions: Bassia scoparia, post-emergence, Postemergence
In short: as §1

[7] = post-emergence, Postemergence, read-out: Plant response rating (scale of 0 to 100), Cocklebur
[8] = pre-emergence, Preemergence, scale 0 to 100, 0 no effect, 100 complete control, read-out: Plant response rating, Cocklebur
[9] = 8 g ai/ha, scale 0 to 100 (0 no effect, 100 complete control)
[10] = 16 g ai/ha, scale 0 to 100, 0 no effect, 100 complete control
[11] = 31 g ai/ha, scale 0 to 100, 0 no effect, 100 complete control
[12] = 62 g ai/ha, scale 0 to 100, 0 no effect, 100 complete control
[13] = post-emergence, Postemergence, read-out: Plant response rating (scale of 0 to 100), Ragweed
[14] = pre-emergence, Preemergence, scale 0 to 100, 0 no effect, 100 complete control, read-out: Plant response rating, Ragweed
[15] = post-emergence, Postemergence, read-out: Plant response rating (scale of 0 to 100), Crabgrass
[16] = pre-emergence, Preemergence, scale 0 to 100, 0 no effect, 100 complete control, read-out: Plant response rating, Crabgrass
[17] = post-emergence, Postemergence, read-out: Plant response rating (scale of 0 to 100), Foxtail, Giant
[18] = pre-emergence, Preemergence, scale 0 to 100, 0 no effect, 100 complete control, read-out: Plant response rating, Foxtail, Giant

Structure (SMILES): Nc1nc(-c2ccc(Br)cc2)nc(C(=O)O)c1Cl [Compound 95, 6-amino-2-(4-bromophenyl)-5-chloro-4-pyrimidinecarboxylic acid]
- pest or weed control at 8 g/ha ([1]; post-emergence, Postemergence, scale 0 to 100, read-out: Plant response rating, Cocklebur): 100%
- pest or weed control at 16 g/ha [1, 7]: 100%
- pest or weed control at 31 g/ha [1, 7]: 100%
- pest or weed control at 62 g/ha [1, 7]: 100%
- pest or weed control at 8 g/ha ([1]; pre-emergence, Preemergence, scale 0 to 100 (0 no effect, 100 complete control), read-out: Plant response rating, Cocklebur): 0%
- pest or weed control at 16 g/ha [1, 8]: 0%
- pest or weed control at 31 g/ha [1, 8]: 0%
- pest or weed control at 62 g/ha [1, 8]: 60%
- pest or weed control at 8 g/ha [2, 9]: 5%
- pest or weed control at 16 g/ha [2, 10]: 40%
- pest or weed control at 31 g/ha [2, 11]: 95%
- pest or weed control at 62 g/ha [2, 12]: 100%
- pest or weed control at 8 g/ha ([3]; post-emergence, Postemergence, scale 0 to 100, read-out: Plant response rating, Ragweed): 90%
- pest or weed control at 16 g/ha [3, 13]: 95%
- pest or weed control at 31 g/ha [3, 13]: 95%
- pest or weed control at 62 g/ha [3, 13]: 95%
- pest or weed control at 8 g/ha ([3]; pre-emergence, Preemergence, scale 0 to 100 (0 no effect, 100 complete control), read-out: Plant response rating, Ragweed): 65%
- pest or weed control at 16 g/ha [3, 14]: 90%
- pest or weed control at 31 g/ha [3, 14]: 100%
- pest or weed control at 62 g/ha [3, 14]: 100%
- pest or weed control at 8 g/ha ([4]; post-emergence, Postemergence, scale 0 to 100, read-out: Plant response rating, Crabgrass): 75%
- pest or weed control at 16 g/ha [4, 15]: 75%
- pest or weed control at 31 g/ha [4, 15]: 80%
- pest or weed control at 62 g/ha [4, 15]: 80%
- pest or weed control at 8 g/ha ([4]; pre-emergence, Preemergence, scale 0 to 100 (0 no effect, 100 complete control), read-out: Plant response rating, Crabgrass): 0%
- pest or weed control at 16 g/ha [4, 16]: 0%
- pest or weed control at 31 g/ha [4, 16]: 30%
- pest or weed control at 62 g/ha [4, 16]: 35%
- pest or weed control at 8 g/ha [5, 9]: 0%
- pest or weed control at 16 g/ha [5, 10]: 0%
- pest or weed control at 31 g/ha [5, 11]: 60%
- pest or weed control at 62 g/ha [5, 12]: 75%
- pest or weed control at 8 g/ha ([6]; post-emergence, Postemergence, scale 0 to 100, read-out: Plant response rating, Foxtail, Giant): 70%
- pest or weed control at 31 g/ha [6, 17]: 75%
- pest or weed control at 62 g/ha [6, 17]: 80%
- pest or weed control at 8 g/ha ([6]; pre-emergence, Preemergence, scale 0 to 100 (0 no effect, 100 complete control), read-out: Plant response rating, Foxtail, Giant): 0%
- pest or weed control at 16 g/ha ([6]; pre-emergence, Preemergence, 16 g ai/ha, scale 0 to 100, 0 no effect, 100 complete control, read-out: Plant response rating, Foxtail, Giant): 0%
- pest or weed control at 31 g/ha [6, 18]: 30%
- pest or weed control at 62 g/ha [6, 18]: 35%
- pest or weed control at 8 g/ha (kochia (Kochia scoparia); 8 g ai/ha, scale 0 to 100, read-out: Plant response rating, Kochia): 90%
- pest or weed control at 16 g/ha (kochia (Kochia scoparia); 16 g ai/ha, read-out: Plant response rating (scale of 0 to 100), Kochia): 95%
- pest or weed control at 31 g/ha (kochia (Kochia scoparia); 31 g ai/ha, read-out: Plant response rating (scale of 0 to 100), Kochia): 95%
- pest or weed control at 62 g/ha (kochia (Kochia scoparia); 62 g ai/ha, read-out: Plant response rating (scale of 0 to 100), Kochia): 95%
